Test results taken from ChEMBL document CHEMBL5108043, “Novel benzimidazole-based pseudo-irreversible butyrylcholinesterase inhibitors with neuroprotective activity in an Alzheimer's disease mouse model” (RSC Med Chem, 2022).
Values after ≈ are worked out from the molar mass of the structure shown. Active and inactive are the calls of the source. The rule behind the calls is not given here.

What was measured:
[1] = molecular target: T1, Acetylcholinesterase (Homo sapiens, UniProt P22303); experiment: Inhibition of human AChE using acetylthiocholine iodide as substrate at 10 uM preincubated for 20 mins followed by substrate addition and measured every 30 sec for 3 mins by DTNB-based UV analysis relative to control; conditions: time 23.0 min
[2] = molecular target: T2, Cholinesterase (Homo sapiens, UniProt P06276)
Description: Inhibition of human BChE using butyrylthiocholineiodide as substrate preincubated for 20 mins followed by substrate addition and measured every 30 sec for 3 mins by DTNB-based UV analysis

[3] = physchem; conditions: PBS buffer
Description: (§1) Solubility of the compound in PBS buffer incubated overnight at room temperature by HPLC based continuous shake-flask method

[4] = buffer
Description: as §1

[5] = molecular target: T3, Cannabinoid receptor 2 (Homo sapiens, UniProt P34972); experiment: Binding affinity to human CB2 receptor expressed in HEK cells at 10 uM relative to control; assay type: cell-based
[6] = molecular target: T2, Cholinesterase; experiment: Pseudo-irreversible inhibition of human BChE using butyrylthiocholineiodide as substrate assessed as equilibrium constant Kc preincubated for 20 mins followed by substrate addition and measured every 30 sec for 3 mins by DTNB-based UV analysis; conditions: time 23.0 min
[7] = Neurotoxicity against mouse HT-22 cells assessed as cell viability at 0.75 to 25 uM by MTT assay; assay type: toxicity, cell-based; conditions: ht-22, 25 µM, dose 0.75-25 µM
[8] = molecular target: T2, Cholinesterase; conditions: time 1.0 hrs
[9] = molecular target: T2, Cholinesterase; experiment: Pseudo-irreversible inhibition of human BChE assessed as decarbamylation of enzyme by measuring rate constant k4 incubated for 1 hrs
[10] = tested on: Mus musculus; experiment: Anti-alzheimer activity against amyloid beta 25-35 induced learning impairments in Swiss mouse assessed as attenuation of long-term memory at 0.03 mg/kg, ip administered for 7 days and measured on day 10 by passive avoidance test; assay type: functional, organism-based; conditions: time 10.0 day
[11] = molecular target: T1, Acetylcholinesterase
Description: Inhibition of human AChE using acetylthiocholine iodide as substrate preincubated for 20 mins followed by substrate addition and measured every 30 sec for 3 mins by DTNB-based UV analysis

[12] = tested on: Mus musculus; experiment: Anti-alzheimer activity against amyloid beta 25-35 induced learning impairments in Swiss mouse assessed as attenuation of spatial working memory at 0.03 mg/kg, ip administered for 7 days and measured on day 8 by Y-maze test; assay type: functional, organism-based; conditions: time 8.0 day
[13] = molecular target: T2, Cholinesterase; experiment: Pseudo-irreversible inhibition of human BChE using butyrylthiocholineiodide as substrate assessed as rate constant k3 preincubated for 20 mins followed by substrate addition and measured every 30 sec for 3 mins by DTNB-based UV analysis; conditions: time 23.0 min
[14] = molecular target: T3, Cannabinoid receptor 2; experiment: Displacement of [3H]CP55940 from human CB2 receptor expressed in HEK cells incubated for 3 hrs by competitive assay; assay type: cell-based
[15] = Neurotoxicity against mouse HT-22 cells assessed as cell viability at 1 to 25 uM by MTT assay; assay type: toxicity, cell-based; conditions: ht-22, 25 µM, dose 1-25 µM

T1 sequence (P22303 whole entry): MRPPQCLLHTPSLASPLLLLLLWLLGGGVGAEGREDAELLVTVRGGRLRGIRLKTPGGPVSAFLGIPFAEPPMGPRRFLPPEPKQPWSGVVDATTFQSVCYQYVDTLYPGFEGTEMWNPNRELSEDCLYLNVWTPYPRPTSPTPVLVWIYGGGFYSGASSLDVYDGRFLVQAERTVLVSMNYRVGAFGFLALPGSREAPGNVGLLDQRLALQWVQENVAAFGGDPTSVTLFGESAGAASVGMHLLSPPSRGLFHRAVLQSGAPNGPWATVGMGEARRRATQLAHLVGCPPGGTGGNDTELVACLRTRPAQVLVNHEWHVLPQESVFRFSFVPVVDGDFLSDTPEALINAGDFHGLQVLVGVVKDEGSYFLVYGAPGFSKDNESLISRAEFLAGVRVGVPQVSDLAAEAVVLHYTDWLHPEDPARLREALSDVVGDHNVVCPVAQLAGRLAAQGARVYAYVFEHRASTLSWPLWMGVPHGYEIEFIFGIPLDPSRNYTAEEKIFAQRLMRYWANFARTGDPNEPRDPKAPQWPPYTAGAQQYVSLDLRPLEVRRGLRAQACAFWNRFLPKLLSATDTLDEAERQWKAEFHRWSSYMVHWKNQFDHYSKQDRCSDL
T3 sequence (P34972 whole entry): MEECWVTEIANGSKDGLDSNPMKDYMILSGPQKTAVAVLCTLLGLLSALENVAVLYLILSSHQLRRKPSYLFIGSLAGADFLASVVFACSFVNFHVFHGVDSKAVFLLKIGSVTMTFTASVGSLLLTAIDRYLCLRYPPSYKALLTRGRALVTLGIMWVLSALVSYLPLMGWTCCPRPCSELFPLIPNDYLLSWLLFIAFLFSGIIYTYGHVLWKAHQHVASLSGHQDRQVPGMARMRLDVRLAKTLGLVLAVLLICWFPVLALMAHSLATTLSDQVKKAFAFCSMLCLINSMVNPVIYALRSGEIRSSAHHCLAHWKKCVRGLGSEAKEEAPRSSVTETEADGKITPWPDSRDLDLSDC
T2 sequence (P06276 whole entry): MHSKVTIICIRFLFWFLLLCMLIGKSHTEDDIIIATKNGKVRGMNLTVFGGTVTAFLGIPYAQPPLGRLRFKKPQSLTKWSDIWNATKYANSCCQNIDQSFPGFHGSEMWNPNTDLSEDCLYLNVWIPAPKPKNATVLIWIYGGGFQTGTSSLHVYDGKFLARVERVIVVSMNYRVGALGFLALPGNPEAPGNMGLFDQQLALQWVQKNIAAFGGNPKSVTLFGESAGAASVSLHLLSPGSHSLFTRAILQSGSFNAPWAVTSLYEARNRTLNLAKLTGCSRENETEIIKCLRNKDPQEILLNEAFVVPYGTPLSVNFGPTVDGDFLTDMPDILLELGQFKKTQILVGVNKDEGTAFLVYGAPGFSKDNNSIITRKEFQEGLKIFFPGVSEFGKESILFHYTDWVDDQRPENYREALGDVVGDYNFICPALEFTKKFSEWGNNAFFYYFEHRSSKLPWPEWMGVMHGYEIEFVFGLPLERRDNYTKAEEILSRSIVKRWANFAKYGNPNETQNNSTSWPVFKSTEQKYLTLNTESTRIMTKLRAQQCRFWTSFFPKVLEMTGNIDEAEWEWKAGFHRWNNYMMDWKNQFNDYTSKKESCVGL

| SMILES | inhibition [1] [%] | IC50 [2] [nM] | solubility thermodynamic [3] [µg/mL] | IC50 [11] [nM] | also measured |
| --- | --- | --- | --- | --- | --- |
| CCCCCCCNC(=O)Oc1ccc(Cc2nc3cc(C(=O)NCCC(C)C)ccc3n2CCC(C)C)cc1 | 55 | 3.7 | < 1 | – | – |
| CCCCCCCNC(=O)Oc1ccc(Cc2nc3cc(C(=O)Nc4ccccc4)ccc3n2CCC(C)C)cc1 | 49 | 15.5 | – | – | solubility [4]: Insoluble |
| CCN(CC)C(=O)c1ccc2c(c1)nc(Cc1ccc(OC(=O)N3CCCC3)cc1)n2CCC(C)C | 16 | 139 | 3.9 (≈ 7.95 µM) | – | Activity [5]: < 10% |
| CCN(CC)C(=O)c1ccc2c(c1)nc(Cc1ccc(OC(=O)N3CCC3)cc1)n2CCC(C)C | – | – | 7.2 (≈ 15.1 µM) | 631 | K [6]: 3 µM; Activity [7]: Non-Toxic; T1/2 [8]: 56.3 min; K [9]: 0.74 h⁻¹; Activity [10]: Active; Activity [12]: Active; K [13]: 8.9 min⁻¹; IC50 [14]: 5010 nM |
| CCCCCCCNC(=O)Oc1ccc(Cc2nc3cc(C(=O)N(CC)CC)ccc3n2CCC(C)C)cc1 | – | 13.2 | < 1 | 175 | Activity [5]: 33% |
| CCN(CC)C(=O)c1ccc2c(c1)nc(Cc1ccc(OC(=O)NCCCCCCN3CCc4ccccc4C3)cc1)n2CCC(C)C | – | 76.5 | – | 9520 | solubility [4]: Insoluble |
| CCCCCCCNC(=O)Oc1ccc(Cc2nc3cc(C(=O)N4CCCCC4)ccc3n2CCC(C)C)cc1 | – | 30.6 | < 1 | 58 | – |
| CCCCCCCNC(=O)Oc1ccc(Cc2nc3cc(C(=O)N(CC)CC)ccc3n2CCCCN2CCCCC2)cc1 | – | 2410 | 67 (≈ 111 µM) | 2150 | – |
| CCCCCCCNC(=O)Oc1ccc2c(c1)CN1CCc3ccccc3C1N2C (stereo unspecified) | 39 | – | < 1 | – | – |
| CCN(CC)C(=O)c1ccc2c(c1)nc(Cc1ccc(O)cc1)n2CCC(C)C | – | – | – | – | Activity [15]: Non-Toxic |
